Results from PubChem BioAssay (NCI).
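Following 48 hours of exposure in 96-well plates, responses at five concentrations were used to interpolate endpoints linearly. GI50 is the concentration that inhibits growth by half. Definition used: TGI = concentration required for complete inhibition of growth.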

How the values were obtained:
Assay in all cases: NCI tumour cell line growth inhibition, 48 h
PC-3 prostate = system: PC-3 prostate
HCT-15 colon = system: HCT-15 colon
ACHN renal = system: ACHN renal
RPMI-8226 leukemia = system: RPMI-8226 leukemia
DU-145 prostate = system: DU-145 prostate
OVCAR-4 ovarian = system: OVCAR-4 ovarian
SN12C renal = system: SN12C renal
M14 melanoma = system: M14 melanoma
A549 NSCLC = system: A549 NSCLC
786-0 renal = system: 786-0 renal
BT-549 breast = system: BT-549 breast
NCI/ADR-RES ovarian = system: NCI/ADR-RES ovarian
OVCAR-8 ovarian = system: OVCAR-8 ovarian
SF-295 CNS = system: SF-295 CNS
SNB-75 CNS = system: SNB-75 CNS
EKVX NSCLC = system: EKVX NSCLC
A498 renal = system: A498 renal
LOX IMVI melanoma = system: LOX IMVI melanoma
K-562 leukemia = system: K-562 leukemia
SK-MEL-28 melanoma = system: SK-MEL-28 melanoma
U251 CNS = system: U251 CNS
CCRF-CEM leukemia = system: CCRF-CEM leukemia
OVCAR-3 ovarian = system: OVCAR-3 ovarian
SK-MEL-5 melanoma = system: SK-MEL-5 melanoma
OVCAR-5 ovarian = system: OVCAR-5 ovarian
T-47D breast = system: T-47D breast
KM12 colon = system: KM12 colon
MOLT-4 leukemia = system: MOLT-4 leukemia
SF-539 CNS = system: SF-539 CNS
NCI-H226 lung = system: NCI-H226 lung
HOP-62 NSCLC = system: HOP-62 NSCLC
MDA-MB-231 breast = system: MDA-MB-231 breast
HL-60(TB) leukemia = system: HL-60(TB) leukemia
SK-OV-3 ovarian = system: SK-OV-3 ovarian
HT29 colon = system: HT29 colon
SNB-19 CNS = system: SNB-19 CNS
SF-268 CNS = system: SF-268 CNS
TK-10 renal = system: TK-10 renal
CAKI-1 renal = system: CAKI-1 renal
UACC-62 melanoma = system: UACC-62 melanoma
SW-620 colon = system: SW-620 colon
HCT-116 colon = system: HCT-116 colon
NCI-H460 lung = system: NCI-H460 lung
MDA-MB-435 = system: MDA-MB-435
UO-31 renal = system: UO-31 renal
NCI-H23 lung = system: NCI-H23 lung
HCC-2998 colon = system: HCC-2998 colon
HOP-92 NSCLC = system: HOP-92 NSCLC
SK-MEL-2 melanoma = system: SK-MEL-2 melanoma
RXF 393 renal = system: RXF 393 renal
UACC-257 melanoma = system: UACC-257 melanoma

Cc1cc(-c2nc3n(c2/C=N/N=C(N)N)CCS3)c(C)s1
GI50 (PC-3 prostate): 13.1 µM | TGI (PC-3 prostate): 27.7 µM | GI50 (HCT-15 colon): 14.8 µM | TGI (HCT-15 colon): 28 µM | GI50 (ACHN renal): 20 µM | TGI (ACHN renal): 39.5 µM | GI50 (RPMI-8226 leukemia): 14 µM | TGI (RPMI-8226 leukemia): 30.7 µM | GI50 (DU-145 prostate): 18.2 µM | TGI (DU-145 prostate): 34.7 µM | GI50 (OVCAR-4 ovarian): 36.2 µM | TGI (OVCAR-4 ovarian): > 100 µM | GI50 (SN12C renal): 14.9 µM | TGI (SN12C renal): 28.9 µM | GI50 (M14 melanoma): 18.9 µM | TGI (M14 melanoma): 32.9 µM | GI50 (A549 NSCLC): 15.7 µM | TGI (A549 NSCLC): 44.3 µM | GI50 (786-0 renal): 17.1 µM | TGI (786-0 renal): 30.8 µM | GI50 (BT-549 breast): 23.1 µM | TGI (BT-549 breast): 42.5 µM | GI50 (NCI/ADR-RES ovarian): 74.4 µM | TGI (NCI/ADR-RES ovarian): > 100 µM | GI50 (OVCAR-8 ovarian): 32.6 µM | TGI (OVCAR-8 ovarian): 63.4 µM | GI50 (SF-295 CNS): 15.6 µM | TGI (SF-295 CNS): 29 µM | GI50 (SNB-75 CNS): 29.9 µM | TGI (SNB-75 CNS): 48.8 µM | GI50 (EKVX NSCLC): 15.2 µM | TGI (EKVX NSCLC): 34.6 µM | GI50 (A498 renal): 18.5 µM | TGI (A498 renal): 33.6 µM | GI50 (LOX IMVI melanoma): 15 µM | TGI (LOX IMVI melanoma): 29.1 µM | GI50 (K-562 leukemia): 19.1 µM | TGI (K-562 leukemia): 42.4 µM | GI50 (SK-MEL-28 melanoma): 15.1 µM | TGI (SK-MEL-28 melanoma): 29.4 µM | GI50 (U251 CNS): 15.6 µM | TGI (U251 CNS): 32.1 µM | GI50 (CCRF-CEM leukemia): 12.7 µM | TGI (CCRF-CEM leukemia): 37.1 µM | GI50 (OVCAR-3 ovarian): 21.9 µM | TGI (OVCAR-3 ovarian): 36.3 µM | GI50 (SK-MEL-5 melanoma): 16.3 µM | TGI (SK-MEL-5 melanoma): 29.9 µM | GI50 (OVCAR-5 ovarian): 14.9 µM | TGI (OVCAR-5 ovarian): 29.8 µM | GI50 (T-47D breast): 17.6 µM | TGI (T-47D breast): 32.5 µM | GI50 (KM12 colon): 6.7 µM | TGI (KM12 colon): 21.2 µM | GI50 (MOLT-4 leukemia): 30.1 µM | TGI (MOLT-4 leukemia): > 100 µM | GI50 (SF-539 CNS): 16.8 µM | TGI (SF-539 CNS): 31.3 µM | GI50 (NCI-H226 lung): 18.7 µM | TGI (NCI-H226 lung): 37.9 µM | GI50 (HOP-62 NSCLC): 17.5 µM | TGI (HOP-62 NSCLC): 31.3 µM | GI50 (MDA-MB-231 breast): 13.4 µM | TGI (MDA-MB-231 breast): 27.1 µM | GI50 (HL-60(TB) leukemia): 36.9 µM | TGI (HL-60(TB) leukemia): > 100 µM | GI50 (SK-OV-3 ovarian): 19.8 µM | TGI (SK-OV-3 ovarian): 36.9 µM | GI50 (HT29 colon): 17.4 µM | TGI (HT29 colon): 37.6 µM | GI50 (SNB-19 CNS): 17.2 µM | TGI (SNB-19 CNS): 35.3 µM | GI50 (SF-268 CNS): 19.1 µM | TGI (SF-268 CNS): 35.5 µM | GI50 (TK-10 renal): 33.6 µM | TGI (TK-10 renal): > 100 µM | GI50 (CAKI-1 renal): 8.02 µM | TGI (CAKI-1 renal): 23.8 µM | GI50 (UACC-62 melanoma): 12.9 µM | TGI (UACC-62 melanoma): 25.5 µM | GI50 (SW-620 colon): 18.5 µM | TGI (SW-620 colon): 35 µM | GI50 (HCT-116 colon): 15.4 µM | TGI (HCT-116 colon): 28.7 µM | GI50 (NCI-H460 lung): 19.6 µM | TGI (NCI-H460 lung): 35.7 µM | GI50 (MDA-MB-435): 18.5 µM | TGI (MDA-MB-435): 32.5 µM | GI50 (UO-31 renal): 17.8 µM | TGI (UO-31 renal): 36.8 µM | GI50 (NCI-H23 lung): 15 µM | TGI (NCI-H23 lung): 28.2 µM

c1csc(-c2ccc(CNc3c4ccccc4nc4ccccc34)cc2)c1
GI50 (PC-3 prostate): 1.08 µM | TGI (PC-3 prostate): 2.47 µM | GI50 (RPMI-8226 leukemia): 1.85 µM | TGI (RPMI-8226 leukemia): 4.8 µM | GI50 (DU-145 prostate): 1.65 µM | TGI (DU-145 prostate): 3.07 µM | GI50 (OVCAR-4 ovarian): 1.53 µM | TGI (OVCAR-4 ovarian): 3.07 µM | GI50 (SN12C renal): 9.15 µM | TGI (SN12C renal): 28.8 µM | GI50 (M14 melanoma): 1.75 µM | TGI (M14 melanoma): 3.4 µM | GI50 (BT-549 breast): 3.87 µM | TGI (BT-549 breast): 14.1 µM | GI50 (SF-295 CNS): 1.31 µM | TGI (SF-295 CNS): 2.67 µM | GI50 (HCC-2998 colon): 1.53 µM | TGI (HCC-2998 colon): 3.01 µM | GI50 (SNB-75 CNS): 2.24 µM | TGI (SNB-75 CNS): 6.58 µM | GI50 (HOP-92 NSCLC): 1.26 µM | TGI (HOP-92 NSCLC): 2.81 µM | GI50 (A498 renal): 1.22 µM | TGI (A498 renal): 2.52 µM | GI50 (SK-MEL-28 melanoma): 1.69 µM | TGI (SK-MEL-28 melanoma): 3.28 µM | GI50 (CCRF-CEM leukemia): 1.28 µM | TGI (CCRF-CEM leukemia): 3.91 µM | GI50 (OVCAR-3 ovarian): 1.58 µM | TGI (OVCAR-3 ovarian): 2.97 µM | GI50 (SK-MEL-5 melanoma): 1.63 µM | TGI (SK-MEL-5 melanoma): 3.01 µM | GI50 (SK-MEL-2 melanoma): 2.11 µM | TGI (SK-MEL-2 melanoma): 4.79 µM | GI50 (T-47D breast): 13.6 µM | TGI (T-47D breast): 55.6 µM | GI50 (MOLT-4 leukemia): 1.32 µM | TGI (MOLT-4 leukemia): 3.74 µM | GI50 (NCI-H226 lung): 5.57 µM | TGI (NCI-H226 lung): 38.6 µM | GI50 (HOP-62 NSCLC): 6.29 µM | TGI (HOP-62 NSCLC): 38.4 µM | GI50 (RXF 393 renal): 1.25 µM | TGI (RXF 393 renal): 2.73 µM | GI50 (HL-60(TB) leukemia): 1.45 µM | TGI (HL-60(TB) leukemia): 3.28 µM | GI50 (SK-OV-3 ovarian): 11 µM | TGI (SK-OV-3 ovarian): 29.8 µM | GI50 (TK-10 renal): 1.76 µM | TGI (TK-10 renal): 3.28 µM | GI50 (CAKI-1 renal): 1.46 µM | TGI (CAKI-1 renal): 5.61 µM | GI50 (UACC-257 melanoma): 2 µM | TGI (UACC-257 melanoma): 4.06 µM | GI50 (UACC-62 melanoma): 6.74 µM | TGI (UACC-62 melanoma): 27 µM | GI50 (MDA-MB-435): 0.322 µM | TGI (MDA-MB-435): 1.09 µM | GI50 (UO-31 renal): 1.19 µM | TGI (UO-31 renal): 2.57 µM
